Source: PubChem BioAssay (NCI)
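All cell lines were grown in 96-well plates and treated with compound for 48 hours. At the TGI there is no net growth.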

Assays:
Experiment in all cases: inhibition of tumour cell growth, NCI panel, 48 h
MOLT-4 leukemia = system: MOLT-4 leukemia
EKVX NSCLC = system: EKVX NSCLC
U251 CNS = system: U251 CNS
HL-60(TB) leukemia = system: HL-60(TB) leukemia
CAKI-1 renal = system: CAKI-1 renal
BT-549 breast = system: BT-549 breast
786-0 renal = system: 786-0 renal
HCC-2998 colon = system: HCC-2998 colon
SK-MEL-28 melanoma = system: SK-MEL-28 melanoma
MDA-N = system: MDA-N
PC-3 prostate = system: PC-3 prostate
MDA-MB-435 = system: MDA-MB-435
SF-539 CNS = system: SF-539 CNS
OVCAR-5 ovarian = system: OVCAR-5 ovarian
UACC-257 melanoma = system: UACC-257 melanoma
T-47D breast = system: T-47D breast
K-562 leukemia = system: K-562 leukemia
LOX IMVI melanoma = system: LOX IMVI melanoma
IGROV1 ovarian = system: IGROV1 ovarian
UACC-62 melanoma = system: UACC-62 melanoma
A498 renal = system: A498 renal
OVCAR-8 ovarian = system: OVCAR-8 ovarian
HOP-62 NSCLC = system: HOP-62 NSCLC
HCT-116 colon = system: HCT-116 colon
MALME-3M melanoma = system: MALME-3M melanoma
SF-268 CNS = system: SF-268 CNS
CCRF-CEM leukemia = system: CCRF-CEM leukemia
SK-MEL-5 melanoma = system: SK-MEL-5 melanoma
SF-295 CNS = system: SF-295 CNS
NCI-H460 lung = system: NCI-H460 lung
ACHN renal = system: ACHN renal
DU-145 prostate = system: DU-145 prostate
HT29 colon = system: HT29 colon
M14 melanoma = system: M14 melanoma
NCI/ADR-RES ovarian = system: NCI/ADR-RES ovarian
NCI-H23 lung = system: NCI-H23 lung
NCI-H522 lung = system: NCI-H522 lung
SR leukemia = system: SR leukemia
MCF7 breast = system: MCF7 breast
RXF 393 renal = system: RXF 393 renal
SK-OV-3 ovarian = system: SK-OV-3 ovarian
TK-10 renal = system: TK-10 renal
UO-31 renal = system: UO-31 renal
SN12C renal = system: SN12C renal
OVCAR-3 ovarian = system: OVCAR-3 ovarian
SNB-19 CNS = system: SNB-19 CNS
SW-620 colon = system: SW-620 colon
COLO 205 colon = system: COLO 205 colon
HCT-15 colon = system: HCT-15 colon
MDA-MB-231 breast = system: MDA-MB-231 breast
NCI-H226 lung = system: NCI-H226 lung
OVCAR-4 ovarian = system: OVCAR-4 ovarian
KM12 colon = system: KM12 colon
SNB-75 CNS = system: SNB-75 CNS
HS 578T breast = system: HS 578T breast
A549 NSCLC = system: A549 NSCLC
RPMI-8226 leukemia = system: RPMI-8226 leukemia
SK-MEL-2 melanoma = system: SK-MEL-2 melanoma

Structure (SMILES): O=[N+]([O-])c1ccccc1N=Nc1c(O)[nH]c2ccc(Br)cc12
- TGI (MOLT-4 leukemia): > 78.5 µM
- TGI (EKVX NSCLC): > 59 µM
- TGI (U251 CNS): > 53.3 µM
- TGI (HL-60(TB) leukemia): > 68.8 µM
- TGI (CAKI-1 renal): 33.1 µM
- TGI (BT-549 breast): > 47.3 µM
- TGI (786-0 renal): 40.4 µM
- TGI (HCC-2998 colon): 34.1 µM
- TGI (SK-MEL-28 melanoma): > 61.9 µM
- TGI (MDA-N): > 60.5 µM
- TGI (PC-3 prostate): 33.3 µM
- TGI (MDA-MB-435): > 94.4 µM
- TGI (SF-539 CNS): > 100 µM
- TGI (OVCAR-5 ovarian): 33.3 µM
- TGI (UACC-257 melanoma): > 50.3 µM
- TGI (T-47D breast): > 78.7 µM
- TGI (K-562 leukemia): > 68.3 µM
- TGI (LOX IMVI melanoma): > 61 µM
- TGI (IGROV1 ovarian): 20.1 µM
- TGI (UACC-62 melanoma): 66.8 µM
- TGI (A498 renal): > 45.8 µM
- TGI (OVCAR-8 ovarian): 44 µM
- TGI (HOP-62 NSCLC): 28.3 µM
- TGI (HCT-116 colon): > 67 µM
- TGI (MALME-3M melanoma): > 100 µM
- TGI (SF-268 CNS): 51.9 µM
- TGI (CCRF-CEM leukemia): 31.9 µM
- TGI (SK-MEL-5 melanoma): > 37.7 µM
- TGI (SF-295 CNS): 34.3 µM
- TGI (NCI-H460 lung): 25 µM
- TGI (ACHN renal): 22.9 µM
- TGI (DU-145 prostate): 31.5 µM
- TGI (HT29 colon): 29.3 µM
- TGI (M14 melanoma): 44.7 µM
- TGI (NCI/ADR-RES ovarian): 40.6 µM
- TGI (NCI-H23 lung): 21.3 µM
- TGI (NCI-H522 lung): > 34.8 µM
- TGI (SR leukemia): > 40.5 µM
- TGI (MCF7 breast): 59.9 µM
- TGI (RXF 393 renal): > 47.5 µM
- TGI (SK-OV-3 ovarian): > 77.3 µM
- TGI (TK-10 renal): 30.8 µM
- TGI (UO-31 renal): 44.7 µM
- TGI (SN12C renal): 44.8 µM
- TGI (OVCAR-3 ovarian): 35.4 µM
- TGI (SNB-19 CNS): 45.2 µM
- TGI (SW-620 colon): > 62.4 µM
- TGI (COLO 205 colon): 33.9 µM
- TGI (HCT-15 colon): > 56 µM
- TGI (MDA-MB-231 breast): 25.2 µM
- TGI (NCI-H226 lung): > 48.9 µM
- TGI (OVCAR-4 ovarian): > 59 µM
- TGI (KM12 colon): 36.5 µM
- TGI (SNB-75 CNS): 36.1 µM
- TGI (HS 578T breast): 46.2 µM
- TGI (A549 NSCLC): 21 µM
- TGI (RPMI-8226 leukemia): > 68.6 µM
- TGI (SK-MEL-2 melanoma): 54.1 µM
